{"source": "patent US20060251574A1", "about": "“Cytotoxins and diagnostic imaging agents comprising hsp90 ligands” (priority 2002, published 2006)", "system": "HSP90", "protocol": "Purified native HSP90 protein (Stressgen) or cell lysates prepared in lysis buffer (20 mM Hepes, pH 7.3, 1 mM EDTA, 5 mM MgCl2, 100 mM KCl) were incubated in the absence or presence of CF7 (17-AAG) or test compound for 15 min at 4° C. […] BioMag™ streptavidin magnetic beads were then added to the mixture, and the reaction was incubated by rotating for another 1 hr at 4° C. Tubes were placed on a magnetic rack, and the unbound supernatant removed. The magnetic beads were washed three times in lysis buffer, and the washes discarded. SDS-PAGE sample buffer was added to the beads and boiled for 5 min at 95° C. Samples were analyzed on 10% SDS protein gels (Novex), and then Western blots using anti-HSP90 monoclonal antibody (Stressgen SPA-830). The bands in the Western Blots were quantitated using the Bio-rad Fluor-S Imager, and the % inhibition of binding of CF7 or test compound calculated. The IC50 reported is the concentration of the compound needed to cause half-maximal inhibition of binding. For experiments that utilized shocked HSP90, the purified HSP90 native protein was incubated for 15 min at 90° C. For experiments that utilized bis-ANS treated HSP90, the purified HSP90 protein was incubated with bis-ANS (Molecular Probes) for 30 min at 37° C."}
{"substance": "17-allylamino-geldanamycin [17-AAG]", "values": [{"measurement": "apparent binding affinity for HSP90, tumor cells versus normal cells or purified HSP90 (FIG. 4)", "setting": "BT474 lysate vs fibroblasts, RPTEC, purified HSP90", "value": "higher apparent binding affinity for HSP90 from tumor cells (BT474) than normal cells (fibroblasts, RPTEC) or purified HSP90 alone"}, {"measurement": "apparent binding affinity for HSP90, high Her2 expressing cells versus normal cells, heat-shocked or bis-ANS treated HSP90 (FIG. 5)", "setting": "SKOY-3, SKBR-3, N87 lysates", "value": "higher apparent binding affinity for HSP90 from the specific high Her2 expressing cells, SKOY-3, SKBR-3, and N87, than from normal cells, heat-shocked HSP90, or bis-ANS treated HSP90"}]}
